Reference: article PMC6695788, “Screening and Isolating Major Aldose Reductase Inhibitors from the Seeds of Evening Primrose (Oenothera biennis)” (Molecules, 2019)
Where two headings read alike, the source gives them in different places.

Columns and labels:
[1] = biological target: T1, rat lens aldose reductase (RLAR) (Rattus norvegicus, UniProt P07943); assay: Rat lens aldose reductase (RLAR) inhibitory assay; format: biochemical; settings: mean ± SD (n = 3); for inhibition at 10 µg/mL: sample concentration 10 μg/mL
T1 construct: the supernatant that retained the RLAR was collected for further tests; from tissue; host or cells: eye lens of Sprague-Dawley rats
Experimental: To extract the RLAR, the eye lens removed from the rats were first homogenized with sodium phosphate buffer (0.1 M, pH 6.2). […] Finally, the supernatant that retained the RLAR was collected for further tests. […] The inhibitory activities of the samples can be calculated using Equation (1):(1) Inhibition (%)=(1−ΔAsample−ΔAblank/ΔAcontrol−ΔAblank)×100% where ΔAcontrol is the absorbance change in 3 min of the tested mixture without the sample; ΔAblank is the absorbance change in 3 min of the tested mixture without RLAR; and ΔAsample is the absorbance change in 3 min of the tested mixture. The IC50 values of the active samples were also calculated and listed, where IC50 indicates the concentration of the tested sample required to consume half of the NADPH.

[2] = biological target: T2, human recombinant aldose reductase (Homo sapiens, UniProt P15121); assay: Affinity-based ultrafiltration-HPLC screening; format: binding; settings: ESME incubated with AR 6.9 µM, 37 °C, 30 min, ultrafiltrate analysed
T2 construct: purchased Wako Pure Chemical Industries Ltd. (Osaka, Japan)
Experimental: The ultrafiltrate was collected for further HPLC analysis.
HPLC analysis was performed using an Agilent 1100 HPLC instrument (Agilent, Santa Clara, CA, USA) equipped with an Eclipse Plus C18 column (150 mm length, 4.6 mm i.d., and 5 µm particle size; Agilent, Santa Clara, CA, USA). The temperature of the column oven was set at 30 °C and the injection volumes of the samples were 10 µL.

| Compound | IC50 ([1]; isolated compounds, read-out: IC50) [µM] | inhibition at 10 µg/mL ([1]; isolated compounds) [%] | HPLC peak area after incubation with human recombinant aldose reductase vs without [2] | IC50 ([1]; IC50, isolated compounds) [µM] | inhibition at 10 µg/mL ([1]; extracts and fractions) [%] |
| --- | --- | --- | --- | --- | --- |
| Oc1cc(O)c2c(c1)O[C@H](c1ccc(O)c(O)c1)[C@@H](O)C2 [Catechin (3), catechin] | 14.8 ± 3.17 | 69.6 ± 1.99 | decreased |  |  |
| O=C(O)c1cc(O)c(O)c(O)c1 [Gallic acid (1), gallic acid] |  | 80.2 ± 1.56 | decreased | 11.5 ± 1.82 |  |
| O=c1c(O)c(-c2ccc(O)c(O)c2)oc2cc(O)cc(O)c12 [Quercetin, quercetin, reference compound] |  |  |  |  | 81.6 ± 3.81 |

Continued, in another order:

| IC50 ([1]; isolated compounds, read-out: IC50) [µM] | inhibition at 10 µg/mL ([1]; isolated compounds) [%] | HPLC peak area after incubation with human recombinant aldose reductase vs without [2] | Compound | IC50 ([1]; IC50, isolated compounds) [µM] | inhibition at 10 µg/mL ([1]; extracts and fractions) [%] |
| --- | --- | --- | --- | --- | --- |
|  | 32.2 ± 0.97 | decreased | COC(=O)c1cc(O)c(O)c(O)c1 [Methyl gallate (4), methyl gallate] |  |  |
|  | 44.6 ± 1.99 | decreased | Oc1cc(O)c2c(c1)O[C@H](c1ccc(O)c(O)c1)[C@@H](O)[C@@H]2c1c(O)cc(O)c2c1O[C@H](c1ccc(O)c(O)c1)[C@@H](O)C2 [Procyanidin B3 (2), procyanidin B3] |  |  |
